Source: patent US20190375778A1, “ADENOSINE DERIVATIVES FOR USE IN THE TREATMENT OF CANCER” (NuCana plc, priority 2016, published 2019)

Tests used:
KG1a cell line = experiment: Annexin V/propidium iodide cytotoxicity, KG1a unsorted; type: cell-based; details: for cytotoxic potency compared in words: KG1a, versus 8-chloroadenosine or other isomers (FIG. 1, FIG. 7); for LD50: Homo sapiens, KG-1a, Annexin V/propidium iodide, 72 hrs
Experimental: (§1) A further comparative analysis of the toxicity of compounds in the KG1a cell line over an extended dose range was carried out, and the relative effect assessed of the compounds on the leukaemic stem cell compartment within the KG1a cell line, across the entire dose range. Thus, experimental tests were performed on certain compounds of the present invention to assess their ability to target cancer stem cells in a leukaemic cell line. The acute myeloid leukaemia (AML) cell line, KG1a, was employed to assess the relative effect of compounds on the stem cell compartment. The KG1a cell line was selected because it manifests a minor stem cell-like compartment with a distinct immunophenotype (Lin^−/CD34^+/CD38^−/CD123^+).
(§2) Cells of the KG1a cell line were maintained in RPMI medium (Invitrogen, Paisley, UK) supplemented with 100 units/ml penicillin, 100 μg/ml streptomycin and 20% foetal calf serum. Cells were subsequently aliquoted (10^5 cells/100 μl) into 96-well plates and were incubated at 37° C. in a humidified 5% carbon dioxide atmosphere for 72 hrs in the presence of nucleoside analogues and their respective nucleotide analogues (known as ProTides) at concentrations that were experimentally determined for each series of compounds. In addition, control cultures were carried out to which no drug was added. Cells were subsequently harvested by centrifugation and were analyzed by flow cytometry using the Annexin V assay.
Cultured cells were harvested by centrifugation and then resuspended in 195 μl of calcium-rich buffer. Subsequently, 5 μl of Annexin V (Caltag Medsystems, Botolph Claydon, UK) was added to the cell suspension and cells were incubated in the dark for 10 mins prior to washing. Cells were finally resuspended in 190 μl of calcium-rich buffer together with 10 μl of propidium iodide. Apoptosis was assessed by dual-colour immunofluorescent flow cytometry as described previously. Subsequently LD50 values (the dose required to kill 50% of the cells in a culture) were calculated for each nucleoside analogue and ProTide.
(§3) The data obtained in these experiments were evaluated using one way ANOVA. All data was confirmed as Gaussian or a Gaussian approximation using the omnibus K2 test. LD50 values were calculated from the non-linear regression and line of best-fit analysis of the sigmoidal dose-response curves. All statistical analyses were performed using Graphpad Prism 6.0 software (Graphpad Software Inc., San Diego, Calif.).

[1] = test system: KG1a leukaemic stem cell compartment (Lin−/CD34+/CD38−/CD123+); experiment: Leukaemic stem cell compartment in KG1a; type: cell-based; details: for targeting of leukaemic/cancer stem cells in words: KG1a, compared to 8-chloroadenosine (FIG. 2, FIG. 8); for Change relative to control (%): % LSC compartment versus the series' control; for KG-1a (CD34+/CD38−/CD123+) % compartment: LSC as percentage of viable cells left, 72 hrs
Experimental: as §1, §2
KG1a cells were cultured for 72 hrs in the presence of a wide range of concentrations of each compound assayed. Cells were then harvested and labelled with a cocktail of anti-lineage antibodies (PE-cy7), anti-CD34 (FITC), anti-CD38 (PE) and anti-CD123 (PERCP cy5). The sub-population expressing a leukaemic stem cell (LSC) phenotype were subsequently identified and were expressed as a percentage of all viable cells left in the culture. The percentages of stem cells remaining were then plotted on a dose-response graph and the effects of the compounds were compared with 8-chloroadenosine.
as §3

human T-lymphocyte CEM = experiment: Cell proliferation (Coulter count) assay, CEM; type: cell-based; details: 72 h, read-out: absolute IC50, CEM
Source text: (§4) Lovo: cell line derived from a metastatic site in a patient with colon cancer MCF7: human oestrogen sensitive mammary epithelial cell line PC3: human prostate cancer cell line A549: cancerous lung tissue derived cells L1210: lymphoblast cell line derived from a mouse with lymphocytic leukaemia FM3A: mammary carcinoma murine cells CEM: human T-lymphoblasts, derived from the blood of a patient with acute lymphoblastic leukaemia HeLa: epithelial cells from a patient with cervical adenocarcinoma
(§5) Murine leukemia L1210, human T-lymphocyte CEM, and human cervix carcinoma HeLa cells were obtained from the American Type Culture Collection (ATCC) (Rockville, Md.). All cells were maintained in Dulbecco's modified Eagle's medium (DMEM) (Invitrogen, Carlsbad, Calif.) with 10% fetal bovine serum (FBS) (Biochrom AG, Berlin, Germany), 10 mM Hepes, and 1 mM sodiumpyruvate (Invitrogen). Cells were grown at 37° C. in a humidified incubator with a gas phase of 5% CO2. Monolayer cells (HeLa and […]) were seeded in 96-well microtiter plates (Nunc, Roskilde, Denmark) at 10 000 cells/well. After 24 h, an equal volume of fresh medium containing the test compounds was added. On day 5, cells were trypsinized and counted in a Coulter counter (Analis, Suarlee, Belgium). Suspension cells (L1210, CEM) were seeded in 96-well microtiter plates (Nunc) at 60 000 cells/well in the presence of a given amount of the test compounds. The cells were allowed to proliferate for 48 h (L1210) or 72 h (CEM) and were then counted in a Coulter counter. The 50% inhibitory concentration (IC50) was defined as the compound concentration required to reduce cell proliferation by 50%. The cytostatic activity of the compounds was determined after 3 days, as outlined above.

FM3A = experiment: Cytotoxicity, FM3A; type: cell-based, murine; details: Mus musculus, read-out: absolute IC50, FM3A
Source text: as §4

MCF7 = experiment: MTT cytotoxicity assay, MCF7; type: cell-based; details: Homo sapiens, 96 h compound exposure, read-out: absolute IC50, MCF7
Source text: as §4
(§6) Anti-tumour evaluation in MCF7, LoVo, A549 and PC3 cell lines was performed by MTT assay. Compounds were prepared as 0.1-100 mM stock solutions dissolved in DMSO and stored at −20° C. Cells were seeded into 96-well microtitre plates at a density of 5×10^3 cells per well and allowed 24 hours to adhere. Decimal compound dilutions were prepared in medium immediately prior to each assay (final concentration 0.1-100 μM). Experimental medium was DMEM+10% FCS (PC3 and Lovo) or RPMI+10% heat inactivated FCS (A549 and MCF7). Following 96 h compound exposure at 37° C., 5% CO2, MTT reagent (Sigma Aldrich) was added to each well (final concentration 0.5 mg/ml). Incubation at 37° C. for 4 h allowed reduction of MTT by viable cells to an insoluble formazan product. MTT was removed and formazan solubilised by addition of 10% Triton X-100 in PBS. Absorbance was read on a Tecan Sunrise spectrophotometer at 540 nm as a measure of cell viability; thus inhibition relative to control was determined (IC50).

[2] = test system: human cervix carcinoma HeLa cells; experiment: Cell proliferation (Coulter count) assay, HeLa; type: cell-based; details: 120 h, cell count on day 5, read-out: absolute IC50, HeLa
Source text: as §4, §5

PC3 = experiment: MTT cytotoxicity assay, PC3; type: cell-based; details: Homo sapiens, PC-3, 96 h compound exposure, read-out: absolute IC50, PC3
Source text: as §4, §6

Murine leukemia L1210 = experiment: Cell proliferation (Coulter count) assay, L1210; type: cell-based; details: Mus musculus, 48 h, read-out: absolute IC50, L1210
Source text: as §4, §5

A549 = experiment: MTT cytotoxicity assay, A549; type: cell-based; details: Homo sapiens, 96 h compound exposure, read-out: absolute IC50, A549
Source text: as §4, §6

Lovo = experiment: MTT cytotoxicity assay, Lovo; type: cell-based; details: Homo sapiens, 96 h compound exposure, read-out: absolute IC50, Lovo
Source text: as §4, §6

KG-1 = experiment: CellTiterGlo viability assay, KG-1; type: cell-based; details: Homo sapiens, KG-1, 72 h, read-out: IC50 KG-1
Experimental: (§7) In vitro viability assay were performed to assess the effects of compounds on cell viability in selected cell lines over ˜72 hrs using the CellTiterGlo (CTG, Promega-G7573) assay. The tests were performed in duplicates with treatment of compounds at 9 points, 3.16 folds titration in 96 well plates over ˜72 hrs. The compound starting concentrations were 198 μM. Cell viability assay using CellTiterGlo in 96-well plate were performed. Compound treatment 72 hrs, standard growth conditions, duplicates. Compounds were dissolved to 40 mM with thawed […]. Compounds were serially diluted at 3.16 fold in thawed DMSO, and warmed to 37° C. before being dissolved in media (2 μl+200 μl). After compounds were dissolved in media, media containing compounds were warmed to 37° C. in incubator and then compounds in media were added to cell plates (50 μl+50 μl) in duplicates. The compounds' final concentrations were from […] to 19.9 nM. All compound solubilities were checked and recorded again, then the plates were transferred to CO2 tissue culture incubator immediately and incubated for 3 days. DMSO final concentration is 0.5%.

K562 = experiment: CellTiterGlo viability assay, K562; type: cell-based; details: Homo sapiens, K562, 72 h, read-out: IC50 K562
Experimental: as §7

CCRFCEM = experiment: CellTiterGlo viability assay, CCRFCEM; type: cell-based; details: Homo sapiens, CCRF-CEM, 72 h, read-out: IC50 CCRFCEM
Experimental: as §7

RPMI-8226 = experiment: CellTiterGlo viability assay, RPMI-8226; type: cell-based, Human; details: Homo sapiens, RPMI-8226, 72 h, read-out: IC50 RPMI-8226
Experimental: as §7

RL = experiment: CellTiterGlo viability assay, RL; type: cell-based; details: Homo sapiens, RL, 72 h, read-out: IC50 RL
Experimental: as §7

HEL92.1.7 = experiment: CellTiterGlo viability assay, HEL92.1.7; type: cell-based; details: Homo sapiens, HEL 92.1.7, 72 h, read-out: IC50 HEL92.1.7
Experimental: as §7

HL-60 = experiment: CellTiterGlo viability assay, HL-60; type: cell-based; details: Homo sapiens, HL-60, 72 h, read-out: IC50 HL-60
Experimental: as §7

MV4-11 = experiment: CellTiterGlo viability assay, MV4-11; type: cell-based; details: Homo sapiens, MV4-11, 72 h, read-out: IC50 MV4-11
Experimental: as §7

NCI-H929 = experiment: CellTiterGlo viability assay, NCI-H929; type: cell-based; details: Homo sapiens, NCI-H929, 72 h, read-out: IC50 NCI-H929
Experimental: as §7

Row | Compound | IC50 (human T-lymphocyte CEM) | IC50 (FM3A) | IC50 (MCF7) | IC50 [2] | IC50 (PC3) | IC50 (Murine leukemia L1210) | IC50 (A549) | IC50 (Lovo) | also measured
1 | C[C@H](NP(=O)(OC[C@H]1O[C@@H](n2c(Cl)nc3c(N)ncnc32)[C@H](O)[C@@H]1O)Oc1cccc2ccccc12)C(=O)OCc1ccccc1 (single isomer, unassigned) [Isomer A of Compound D] | – | – | – | – | – | – | – | – | cytotoxic potency compared in words (KG1a cell line): significantly more potent; targeting of leukaemic/cancer stem cells in words [1]: statistically significantly increased ability to target cancer stem cells
2 | Nc1ncnc2c1nc(Cl)n2[C@@H]1O[C@H](COP(=O)(NCC(=O)OCc2ccccc2)Oc2ccccc2)[C@@H](O)[C@H]1O (single isomer, unassigned; isomer a) [Isomer A of Compound B] | – | – | – | – | – | – | – | – | cytotoxic potency compared in words (KG1a cell line): significantly more potent; targeting of leukaemic/cancer stem cells in words [1]: statistically significantly increased ability to target cancer stem cells
3 | CC(C)[C@H](NP(=O)(OC[C@H]1O[C@@H](n2c(Cl)nc3c(N)ncnc32)C(O)C1O)Oc1ccccc1)C(=O)OCc1ccccc1 (stereo partly drawn) [AA, 5′-([(Benzyloxy-L-valin-N-yl)-phenyl]-phosphatyl) 8-chloroadenosine] | 15 to 100 µM | 15 to 100 µM | 0.1 to 5 µM | 5 to 15 µM | 15 to 100 µM | 15 to 100 µM | 15 to 100 µM | 0.1 to 5 µM | –
4 | C[C@H](NP(=O)(OC[C@H]1O[C@@H](n2cnc3c(N)nc(Cl)nc32)[C@H](F)C1O)Oc1cccc2ccccc12)C(=O)OCc1ccccc1 (some centres unmarked) [Comparative compound 1] | – | – | – | – | – | – | – | – | LD50 (KG1a cell line): 140 nM; Change relative to control (%) [1]: −0.2%; KG-1a (CD34+/CD38−/CD123+) % compartment [1]: 3.3%
5 | C[C@H](NP(=O)(OC[C@H]1O[C@@H](n2cnc3c(N)nc(Cl)nc32)CC1O)Oc1cccc2ccccc12)C(=O)OCc1ccccc1 (some centres unmarked) [Comparative compound 2] | – | – | – | – | – | – | – | – | LD50 (KG1a cell line): 820 nM; Change relative to control (%) [1]: −0.5%; KG-1a (CD34+/CD38−/CD123+) % compartment [1]: 3.5%
6 | CCCCCOC(=O)[C@H](Cc1ccccc1)NP(=O)(OC[C@H]1O[C@@H](n2c(Cl)nc3c(N)ncnc32)C(O)C1O)Oc1cccc2ccccc12 (stereo partly drawn) [Q, 5′-([(Pent-1-yloxy-L-phenylalanin-N-yl)-naphth-1-yl]-phosphatyl) 8-chloroadenosine] | 0.1 to 5 µM | – | – | 0.1 to 5 µM | – | 5 to 15 µM | – | – | IC50 (KG-1): 5 to 15 µM; IC50 (K562): 0.1 to 5 µM; IC50 (CCRFCEM): 5 to 15 µM; IC50 (RPMI-8226): 0.1 to 5 µM; IC50 (RL): 5 to 15 µM; IC50 (HEL92.1.7): 0.1 to 5 µM; IC50 (HL-60): 5 to 15 µM; IC50 (MV4-11): 0.1 to 5 µM; IC50 (NCI-H929): 5 to 15 µM
7 | C[C@@H](NP(=O)(OC[C@H]1O[C@@H](n2c(Cl)nc3c(N)ncnc32)C(O)C1O)Oc1ccccc1)C(=O)OCc1ccccc1 (stereo partly drawn) [T, 5′-([(Benzyloxy-D-alanin-N-yl)-phenyl]-phosphatyl) 8-chloroadenosine] | 15 to 100 µM | 15 to 100 µM | 15 to 100 µM | 5 to 15 µM | 0.1 to 5 µM | 15 to 100 µM | 15 to 100 µM | 0.1 to 5 µM | –
8 | Nc1ncnc2c1nc(Cl)n2[C@@H]1O[C@H](COP(=O)(N[C@@H](Cc2ccccc2)C(=O)OCc2ccccc2)Oc2ccccc2)C(O)C1O (stereo partly drawn) [U, 5′-([(Benzyloxy-L-phenylalanin-N-yl)-phenyl]-phosphatyl) 8-chloroadenosine] | 5 to 15 µM | 15 to 100 µM | 0.1 to 5 µM | 0.1 to 5 µM | 0.1 to 5 µM | 15 to 100 µM | 0.1 to 5 µM | 0.1 to 5 µM | –
9 | C[C@H](NP(=O)(OC[C@H]1O[C@@H](n2c(Cl)nc3c(N)ncnc32)C(O)C1O)Oc1ccccc1)C(=O)OC1CCCCC1 (stereo partly drawn) [X, 5′-([(Cyclohexyloxy-L-alanin-N-yl)-phenyl]-phosphatyl) 8-chloroadenosine] | – | – | 0.1 to 5 µM | – | 0.1 to 5 µM | – | 15 to 100 µM | 0.1 to 5 µM | –
